Measured values taken from ChEMBL document CHEMBL4402510, “Caprazamycins: Promising lead structures acting on a novel antibacterial target MraY” (Eur J Med Chem, 2019).
In brackets after ≈: the same amount, converted by molar mass.

Assays:
Format in all cases: functional
Mycolicibacterium phlei = test: Antibacterial activity against Mycobacterium phlei
Staphylococcus aureus [1] = test: Antibacterial activity against Staphylococcus aureus FDA 209P
[2] = Antibacterial activity against Mycobacterium avium subsp. avium ATCC 25291
[3] = test system: Mycobacterium tuberculosis; test: Antibacterial activity against Mycobacterium tuberculosis H37Rv
[4] = test system: Mycobacterium tuberculosis; test: Antibacterial activity against Mycobacterium tuberculosis JCM 6384
[5] = test system: Mycolicibacterium smegmatis; test: Antibacterial activity against Mycobacterium smegmatis ATCC 607
Staphylococcus aureus [6] = test: Antibacterial activity against methicillin resistant Staphylococcus aureus MS16526
[7] = test system: Mycobacterium tuberculosis; test: Antibacterial activity against Mycobacterium tuberculosis Kurono
Escherichia coli = test: Antibacterial activity against Escherichia coli K-12
[8] = test system: Mycobacterium avium subsp. paratuberculosis; test: Antibacterial activity against Mycobacterium avium subsp. paratuberculosis ATCC 43015
Bacillus subtilis = test: Antibacterial activity against Bacillus subtilis PCI 219
Staphylococcus aureus [9] = test: Antibacterial activity against methicillin resistant Staphylococcus aureus No. 5
Streptococcus pneumoniae = test: Antibacterial activity against Streptococcus pneumoniae PCI 602
Mycolicibacterium vaccae = test: Antibacterial activity against Mycobacterium vaccae ATCC 15483

SMILES	MIC (Mycolicibacterium phlei)	MIC (Staphylococcus aureus [1])	MIC [2]	MIC [3]	MIC [4]	MIC [5]	MIC (Staphylococcus aureus [6])	MIC [7]	MIC (Escherichia coli)	MIC [8]	MIC (Bacillus subtilis)	MIC (Staphylococcus aureus [9])	MIC (Streptococcus pneumoniae)	MIC (Mycolicibacterium vaccae)
CCCCCCCCNC(=O)C1=CCN(C)[C@@H]([C@H](O[C@@H]2O[C@H](CN)[C@@H](O)[C@H]2O)[C@H]2O[C@@H](n3ccc(=O)[nH]c3=O)[C@H](O)[C@@H]2O)C(=O)N1C	100 µg/mL (≈ 150 µM)	100 µg/mL (≈ 150 µM)	3.13 µg/mL (≈ 4.68 µM)	3.3 µg/mL (≈ 4.93 µM)	12.5 µg/mL (≈ 18.7 µM)	6.25 µg/mL (≈ 9.35 µM)	> 100 µg/mL	0.78 µg/mL (≈ 1.17 µM)	> 100 µg/mL	25 µg/mL (≈ 37.4 µM)	> 100 µg/mL	3.13 µg/mL (≈ 4.68 µM)	> 100 µg/mL	100 µg/mL (≈ 150 µM)
CCCCc1ccc(NC(=O)C2=CCN[C@@H]([C@H](O[C@@H]3O[C@H](CN)[C@@H](O)[C@H]3O)[C@H]3O[C@@H](n4ccc(=O)[nH]c4=O)[C@H](O)[C@@H]3O)C(=O)N2C)cc1	12.5 µg/mL (≈ 18.5 µM)	25 µg/mL (≈ 37.1 µM)	1.56 µg/mL (≈ 2.31 µM)	1.56 µg/mL (≈ 2.31 µM)	0.2 µg/mL (≈ 0.296 µM)	6.25 µg/mL (≈ 9.26 µM)	100 µg/mL (≈ 148 µM)	1.56 µg/mL (≈ 2.31 µM)	> 100 µg/mL	0.39 µg/mL (≈ 0.578 µM)	3.13 µg/mL (≈ 4.64 µM)	100 µg/mL (≈ 148 µM)	50 µg/mL (≈ 74.1 µM)	50 µg/mL (≈ 74.1 µM)
CCCCCCCNC(=O)C1=CCN(C)[C@@H]([C@H](O[C@@H]2O[C@H](CN)[C@@H](O)[C@H]2O)[C@H]2O[C@@H](n3ccc(=O)[nH]c3=O)[C@H](O)[C@@H]2O)C(=O)N1C	> 100 µg/mL	6.25 µg/mL (≈ 9.55 µM)	25 µg/mL (≈ 38.2 µM)	3.13 µg/mL (≈ 4.78 µM)	50 µg/mL (≈ 76.4 µM)	25 µg/mL (≈ 38.2 µM)	> 100 µg/mL	1.56 µg/mL (≈ 2.38 µM)	> 100 µg/mL	25 µg/mL (≈ 38.2 µM)	> 100 µg/mL	> 100 µg/mL	> 100 µg/mL	> 100 µg/mL
CCCCCCCCCCCCCCCNC(=O)C1=CCN(C)[C@@H]([C@H](O[C@@H]2O[C@H](CN)[C@@H](O)[C@H]2O)[C@H]2O[C@@H](n3ccc(=O)[nH]c3=O)[C@H](O)[C@@H]2O)C(=O)N1C	6.25 µg/mL (≈ 8.15 µM)	< 0.2 µg/mL	3.13 µg/mL (≈ 4.08 µM)	1.56 µg/mL (≈ 2.03 µM)	1.56 µg/mL (≈ 2.03 µM)	1.56 µg/mL (≈ 2.03 µM)	50 µg/mL (≈ 65.2 µM)	1.56 µg/mL (≈ 2.03 µM)	1.56 µg/mL (≈ 2.03 µM)	0.78 µg/mL (≈ 1.02 µM)	1.56 µg/mL (≈ 2.03 µM)	> 100 µg/mL	3.13 µg/mL (≈ 4.08 µM)	6.25 µg/mL (≈ 8.15 µM)
CCCCCCCCCCNC(=O)C1=CCN(C)[C@@H]([C@H](O[C@@H]2O[C@H](CN)[C@@H](O)[C@H]2O)[C@H]2O[C@@H](n3ccc(=O)[nH]c3=O)[C@H](O)[C@@H]2O)C(=O)N1C	25 µg/mL (≈ 35.9 µM)	0.78 µg/mL (≈ 1.12 µM)	0.39 µg/mL (≈ 0.56 µM)	1.56 µg/mL (≈ 2.24 µM)	0.78 µg/mL (≈ 1.12 µM)	6.25 µg/mL (≈ 8.97 µM)	> 100 µg/mL	1.56 µg/mL (≈ 2.24 µM)	> 100 µg/mL	6.25 µg/mL (≈ 8.97 µM)	> 100 µg/mL	> 100 µg/mL	> 100 µg/mL	50 µg/mL (≈ 71.8 µM)
CCCCCCCCCCCCCCCCCCOC(=O)C1=CCN(C)[C@@H]([C@H](O[C@@H]2O[C@H](CN)[C@@H](O)[C@H]2O)[C@H]2O[C@@H](n3ccc(=O)[nH]c3=O)[C@H](O)[C@@H]2O)C(=O)N1C	> 100 µg/mL	25 µg/mL (≈ 30.9 µM)	12.5 µg/mL (≈ 15.4 µM)	6.25 µg/mL (≈ 7.72 µM)	6.25 µg/mL (≈ 7.72 µM)	> 100 µg/mL	50 µg/mL (≈ 61.7 µM)	3.13 µg/mL (≈ 3.86 µM)	> 100 µg/mL	3.13 µg/mL (≈ 3.86 µM)	3.13 µg/mL (≈ 3.86 µM)	50 µg/mL (≈ 61.7 µM)	> 100 µg/mL	> 100 µg/mL
CCCCCCCCCCCCCNC(=O)C1=CCN(C)[C@@H]([C@H](O[C@@H]2O[C@H](CN)[C@@H](O)[C@H]2O)[C@H]2O[C@@H](n3ccc(=O)[nH]c3=O)[C@H](O)[C@@H]2O)C(=O)N1C	0.78 µg/mL (≈ 1.06 µM)	3.13 µg/mL (≈ 4.24 µM)	3.13 µg/mL (≈ 4.24 µM)	1.56 µg/mL (≈ 2.11 µM)	0.2 µg/mL (≈ 0.271 µM)	0.39 µg/mL (≈ 0.528 µM)	3.13 µg/mL (≈ 4.24 µM)	1.56 µg/mL (≈ 2.11 µM)	100 µg/mL (≈ 135 µM)	0.1 µg/mL (≈ 0.135 µM)	0.39 µg/mL (≈ 0.528 µM)	6.25 µg/mL (≈ 8.46 µM)	6.25 µg/mL (≈ 8.46 µM)	0.78 µg/mL (≈ 1.06 µM)
CCCCCCNC(=O)C1=CCN(C)[C@@H]([C@H](O[C@@H]2O[C@H](CN)[C@@H](O)[C@H]2O)[C@H]2O[C@@H](n3ccc(=O)[nH]c3=O)[C@H](O)[C@@H]2O)C(=O)N1C	100 µg/mL (≈ 156 µM)	> 100 µg/mL	12.5 µg/mL (≈ 19.5 µM)	3.16 µg/mL (≈ 4.93 µM)	1.56 µg/mL (≈ 2.43 µM)	50 µg/mL (≈ 78 µM)	> 100 µg/mL	1.56 µg/mL (≈ 2.43 µM)	> 100 µg/mL	0.78 µg/mL (≈ 1.22 µM)	25 µg/mL (≈ 39 µM)	> 100 µg/mL	> 100 µg/mL	100 µg/mL (≈ 156 µM)
CCCCCNC(=O)C1=CCN(C)[C@@H]([C@H](O[C@@H]2O[C@H](CN)[C@@H](O)[C@H]2O)[C@H]2O[C@@H](n3ccc(=O)[nH]c3=O)[C@H](O)[C@@H]2O)C(=O)N1C	> 100 µg/mL	25 µg/mL (≈ 39.9 µM)	100 µg/mL (≈ 160 µM)	12.5 µg/mL (≈ 19.9 µM)	100 µg/mL (≈ 160 µM)	100 µg/mL (≈ 160 µM)	> 100 µg/mL	6.25 µg/mL (≈ 9.97 µM)	> 100 µg/mL	100 µg/mL (≈ 160 µM)	> 100 µg/mL	> 100 µg/mL	> 100 µg/mL	> 100 µg/mL
CCCCCCCCCCCCCCCCCCCNC(=O)C1=CCN(C)[C@@H]([C@H](O[C@@H]2O[C@H](CN)[C@@H](O)[C@H]2O)[C@H]2O[C@@H](n3ccc(=O)[nH]c3=O)[C@H](O)[C@@H]2O)C(=O)N1C	25 µg/mL (≈ 30.4 µM)	6.25 µg/mL (≈ 7.59 µM)	1.56 µg/mL (≈ 1.9 µM)	1.56 µg/mL (≈ 1.9 µM)	0.78 µg/mL (≈ 0.948 µM)	12.5 µg/mL (≈ 15.2 µM)	6.25 µg/mL (≈ 7.59 µM)	1.56 µg/mL (≈ 1.9 µM)	> 100 µg/mL	0.78 µg/mL (≈ 0.948 µM)	0.78 µg/mL (≈ 0.948 µM)	6.25 µg/mL (≈ 7.59 µM)	> 100 µg/mL	3.13 µg/mL (≈ 3.8 µM)
CN1C(=O)[C@H]([C@H](O[C@@H]2O[C@H](CN)[C@@H](O)[C@H]2O)[C@H]2O[C@@H](n3ccc(=O)[nH]c3=O)[C@H](O)[C@@H]2O)N(C)CC=C1C(=O)Nc1ccc(C2CCCCC2)cc1	12.5 µg/mL (≈ 17.5 µM)	100 µg/mL (≈ 140 µM)	1.56 µg/mL (≈ 2.18 µM)	1.56 µg/mL (≈ 2.18 µM)	0.39 µg/mL (≈ 0.546 µM)	1.56 µg/mL (≈ 2.18 µM)	0.39 µg/mL (≈ 0.546 µM)	1.56 µg/mL (≈ 2.18 µM)	6.25 µg/mL (≈ 8.74 µM)	0.78 µg/mL (≈ 1.09 µM)	100 µg/mL (≈ 140 µM)	100 µg/mL (≈ 140 µM)	12.5 µg/mL (≈ 17.5 µM)	25 µg/mL (≈ 35 µM)
CCCCCCCCCCCCNC(=O)C1=CCN(C)[C@@H]([C@H](O[C@@H]2O[C@H](CN)[C@@H](O)[C@H]2O)[C@H]2O[C@@H](n3ccc(=O)[nH]c3=O)[C@H](O)[C@@H]2O)C(=O)N1C	0.39 µg/mL (≈ 0.538 µM)	3.13 µg/mL (≈ 4.32 µM)	3.13 µg/mL (≈ 4.32 µM)	1.56 µg/mL (≈ 2.15 µM)	0.2 µg/mL (≈ 0.276 µM)	0.39 µg/mL (≈ 0.538 µM)	6.25 µg/mL (≈ 8.62 µM)	1.56 µg/mL (≈ 2.15 µM)	100 µg/mL (≈ 138 µM)	–	0.78 µg/mL (≈ 1.08 µM)	12.5 µg/mL (≈ 17.2 µM)	6.25 µg/mL (≈ 8.62 µM)	1.56 µg/mL (≈ 2.15 µM)
CCCCCCCCCCCCCCCCNC(=O)C1=CCN(C)[C@@H]([C@H](O[C@@H]2O[C@H](CN)[C@@H](O)[C@H]2O)[C@H]2O[C@@H](n3ccc(=O)[nH]c3=O)[C@H](O)[C@@H]2O)C(=O)N1C	> 100 µg/mL	0.78 µg/mL (≈ 0.999 µM)	3.13 µg/mL (≈ 4.01 µM)	3.13 µg/mL (≈ 4.01 µM)	3.13 µg/mL (≈ 4.01 µM)	0.78 µg/mL (≈ 0.999 µM)	–	3.13 µg/mL (≈ 4.01 µM)	–	6.25 µg/mL (≈ 8 µM)	–	1.56 µg/mL (≈ 2 µM)	1.56 µg/mL (≈ 2 µM)	> 100 µg/mL
